Results: patent US20250333371A1, “COMPOUNDS” (PSYLO PTY LTD, priority 2022, published 2025)

Target: T1, 5-HT2B (Homo sapiens, UniProt P41595)
T1 construct: host or cells: CHO-K1
Assay: FLIPR Ca2+ flux functional assay, 5-HT2B receptor (stably transfected CHO-K1)
Type: cell-based
Procedure: Activity at 5-HT2A, 5-HT2B and 5-HT2C receptors was determined using a FLIPR Ca^2+ flux assay at WuXi AppTec Co. Ltd. (Hong Kong) Discovery Biology Unit according to their standard protocols. Briefly, stably transfected cells expressing the receptor of interest (HEK293 for 5-HT2A and 5-HT2C; CHO-K1 for 5-HT2B) were grown and plated in a 384 well plate and incubated at 37° C. and 5% CO2 overnight. A 250 mM stock solution of probenecid in FLIPR calcium assay buffer (10 mL) was freshly prepared and combined with a fluorescent dye (Fluo-4 Direct) to give a final assay concentration of 2.5 mM. Reference compounds were 4-fold serially diluted and the screening compounds were 3-fold serially diluted in 100% DMSO for 10 points using Agilent Bravo, and 750 nL was added to a 384 well compound plate using Echo along with 30 μL assay buffer. The fluorescent dye was then added to the assay plate along with assay buffer to a final volume of 40 μL. The cell plate was incubated for 50 min at 37° C. and 5% CO2 and placed into the FLIPR Tetra along with the compound plate. 10 μL of references and compounds were then transferred from the compound plate into the cell plate and the fluorescent signal was read.

T1 sequence (P41595 whole entry): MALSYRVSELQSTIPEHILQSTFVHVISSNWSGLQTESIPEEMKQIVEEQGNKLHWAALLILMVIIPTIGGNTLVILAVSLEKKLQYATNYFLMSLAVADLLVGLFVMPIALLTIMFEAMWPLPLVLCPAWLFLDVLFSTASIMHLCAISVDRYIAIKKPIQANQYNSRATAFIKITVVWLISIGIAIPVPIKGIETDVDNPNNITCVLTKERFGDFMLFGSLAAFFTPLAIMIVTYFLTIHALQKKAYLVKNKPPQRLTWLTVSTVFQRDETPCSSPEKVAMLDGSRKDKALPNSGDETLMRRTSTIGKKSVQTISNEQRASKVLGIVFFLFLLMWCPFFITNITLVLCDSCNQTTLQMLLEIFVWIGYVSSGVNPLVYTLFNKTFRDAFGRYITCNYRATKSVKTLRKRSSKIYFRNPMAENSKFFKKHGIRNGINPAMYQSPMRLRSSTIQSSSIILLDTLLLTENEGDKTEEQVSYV

COc1ccc2cccc(CCN(C)C(C)C)c2c1 [Example I-7, N-(2-(7-methoxynaphthalen-1-yl)ethyl)-N-methylpropan-2-amine]
EC50: > 10 µM
Emax (agonist activity, Ca2+ flux, CHO-K1): 36%
